Literature values in patent US20240050950A1, “GRADIENT-BASED MICROFLUIDIC CIRCUIT, DEVICE, AND METHOD FOR PERFORMING AN ASSAY” (priority 2020, published 2024).
Structures can show the parent of a compound that is named as a salt. Where two headings read alike, the source gives them in different places. Square brackets hold non-standard residues; d marks the D form. Peptide text beside a SMILES is read from it. * marks the point of attachment. dPhe(4-NHCONH2) = NC(=O)Nc1ccc(C[C@@H](N)C(=O)O)cc1; Dihydroorotyl(S) = O=C1C[C@@H](C(=O)*)NC(=O)N1; dPhe(4-Cl) = N[C@H](Cc1ccc(Cl)cc1)C(=O)O; Phe(4-NH2) = Nc1ccc(C[C@H](N)C(=O)O)cc1; d2Nal = N[C@H](Cc1ccc2ccccc2c1)C(=O)O; Lys(iPr) = CC(C)NCCCC[C@H](N)C(=O)O; d3Pal = N[C@H](Cc1cccnc1)C(=O)O

Details: cited from earlier work
[1] = Table 1, antimicrobial agents/drugs
[2] = Table 3, antifungal drugs and other molecules

## CCCCCCCCCC(=O)N[C@@H](Cc1c[nH]c2ccccc12)C(=O)N[C@H](CC(N)=O)C(=O)N[C@@H](CC(=O)O)C(=O)N[C@@H]1C(=O)NCC(=O)N[C@@H](CCCN)C(=O)N[C@@H](CC(=O)O)C(=O)N[C@H](C)C(=O)N[C@@H](CC(=O)O)C(=O)NCC(=O)N[C@H](CO)C(=O)N[C@@H]([C@H](C)CC(=O)O)C(=O)N[C@@H](CC(=O)c2ccccc2N)C(=O)O[C@@H]1C [Daptomycin]
[1]
  Molar volume: 1110.7 ± 5.0 cm^3

## COc1cccc2c1C(=O)c1c(O)c3c(c(O)c1C2=O)C[C@@](O)(C(C)=O)C[C@@H]3O[C@H]1C[C@H](N)[C@H](O)[C@H](C)O1 [Daunorubicin (Daunomycin), Daunorubicin]
[1]
  Molar volume: 339.4 ± 5.0 cm^3

## CC(=O)N[C@H](Cc1ccc2ccccc2c1)C(=O)N[C@H](Cc1ccc(Cl)cc1)C(=O)N[C@H](Cc1cccnc1)C(=O)N[C@@H](CO)C(=O)N[C@@H](Cc1ccc(NC(=O)[C@@H]2CC(=O)NC(=O)N2)cc1)C(=O)N[C@H](Cc1ccc(NC(N)=O)cc1)C(=O)N[C@@H](CC(C)C)C(=O)N[C@@H](CCCCNC(C)C)C(=O)N1CCC[C@H]1C(=O)N[C@H](C)C(N)=O [Degarelix] (Ac-[d2Nal][dPhe(4-Cl)][d3Pal]S[Phe(4-NH2)](Dihydroorotyl(S))[dPhe(4-NHCONH2)]L[Lys(iPr)]P[dA]-NH2)
Table 2, anticancer drugs
  Molar volume: 1231.3 ± 3.0 cm^3

## CN(C)[C@@H]1C(O)=C(C(N)=O)C(=O)[C@@]2(O)C(O)=C3C(=O)c4c(O)ccc(Cl)c4[C@@H](O)[C@H]3C[C@@H]12 [Demeclocycline]
[1]
  Molar volume: 265.1 ± 5.0 cm^3

## C[C@@H](CN1CC(=O)NC(=O)C1)N1CC(=O)NC(=O)C1 [Dexrazoxane Hydrochloride]
Table 2, anticancer drugs
  Molar volume: 201.2 ± 3.0 cm^3

## Oc1ccc(Cl)cc1Cc1cc(Cl)ccc1O [Dichlorophene]
[1]
  Molar volume: 189.5 ± 3.0 cm^3

## Cc1onc(-c2c(Cl)cccc2Cl)c1C(=O)N[C@@H]1C(=O)N2[C@@H]1SC(C)(C)[C@@H]2C(=O)O [Dicloxacillin]
[1]
  Molar volume: 290.0 ± 5.0 cm^3

## CN1CCN(c2cc3c(cc2F)c(=O)c(C(=O)O)cn3-c2ccc(F)cc2)CC1 [Difloxacin]
[1]
  Molar volume: 283.2 ± 3.0 cm^3

## CN[C@@H]1[C@H](O[C@H]2[C@H](O[C@H]3[C@H](O)[C@@H](O)[C@H](NC(=N)N)[C@@H](O)[C@@H]3NC(=N)N)O[C@@H](C)[C@]2(O)CO)O[C@@H](CO)[C@H](O)[C@H]1O [Dihydrostreptomycin]
[1]
  Molar volume: 293.4 ± 7.0 cm^3

## Cc1ncc([N+](=O)[O-])n1C [Dimetridazole]
[1]
  Molar volume: 103.4 ± 7.0 cm^3

## CC(=O)O[C@@]12CO[C@@H]1C[C@H](O)[C@@]1(C)C(=O)[C@H](O)C3=C(C)[C@@H](OC(=O)[C@H](O)[C@@H](NC(=O)OC(C)(C)C)c4ccccc4)C[C@@](O)([C@@H](OC(=O)c4ccccc4)[C@H]21)C3(C)C [Docetaxel (Taxotere), Docetaxel]
Table 2, anticancer drugs
  Molar volume: 585.7 ± 5.0 cm^3

## COc1cccc2c1C(=O)c1c(O)c3c(c(O)c1C2=O)C[C@@](O)(C(=O)CO)C[C@@H]3O[C@H]1C[C@H](N)[C@H](O)[C@H](C)O1 [Doxorubicin]
[1]
  Molar volume: 336.6 ± 5.0 cm^3
Table 2, anticancer drugs
  Molar volume: 336.6 ± 5.0 cm^3

## CC(C)(O)CNc1nc(Nc2ccnc(C(F)(F)F)c2)nc(-c2cccc(C(F)(F)F)n2)n1 [Enasidenib Mesylate]
Table 2, anticancer drugs
  Molar volume: 320.4 ± 3.0 cm^3

## CCN1CCN(c2cc3c(cc2F)c(=O)c(C(=O)O)cn3C2CC2)CC1 [Enrofloxacin (Baytril), Enrofloxacin]
[1]
  Molar volume: 259.3 ± 3.0 cm^3

## CNC(=O)c1ccc(N2C(=S)N(c3ccc(C#N)c(C(F)(F)F)c3)C(=O)C2(C)C)cc1F [Enzalutamide (Xtandi), Enzalutamide]
Table 2, anticancer drugs
  Molar volume: 310.0 ± 5.0 cm^3

## C=C1C[C@@H]2CC[C@@]34C[C@H]5O[C@H]6[C@@H](O3)[C@H]3O[C@H](CC[C@@H]3O[C@H]6[C@H]5O4)CC(=O)C[C@@H]3[C@@H](OC)[C@@H](C[C@H](O)CN)O[C@H]3C[C@H]3O[C@@H](CC[C@@H]1O2)C[C@@H](C)C3=C [Eribulin Mesylate]
Table 2, anticancer drugs
  Molar volume: 563.2 ± 5.0 cm^3

## C#Cc1cccc(Nc2ncnc3cc(OCCOC)c(OCCOC)cc23)c1 [Erlotinib Hydrochloride (Tarceva), Erlotinib Hydrochloride]
Table 2, anticancer drugs
  Molar volume: 315.4 ± 5.0 cm^3

## CC[C@@H](CO)NCCN[C@@H](CC)CO [Ethambutol ((+)-S,S-Ethambutol), Ethambutol]
[1]
  Molar volume: 207.0 ± 3.0 cm^3

## COc1cc([C@@H]2c3cc4c(cc3[C@@H](O[C@@H]3O[C@@H]5CO[C@@H](C)O[C@H]5[C@H](O)[C@H]3O)[C@H]3COC(=O)[C@H]23)OCO4)cc(OC)c1OP(=O)(O)O [Etopophos (Etoposide Phosphate), Etoposide Phosphate]
Table 2, anticancer drugs
  Molar volume: 406.7 ± 5.0 cm^3

## COc1cc([C@@H]2c3cc4c(cc3[C@@H](O[C@@H]3O[C@@H]5CO[C@@H](C)O[C@H]5[C@H](O)[C@H]3O)[C@H]3COC(=O)[C@H]23)OCO4)cc(OC)c1O [Etoposide]
[1]
  Molar volume: 378.5 ± 5.0 cm^3

## CN(C)CCOc1ccc(/C(=C(/CCCl)c2ccccc2)c2ccccc2)cc1 [Fareston (Toremifene), Toremifene]
Table 2, anticancer drugs
  Molar volume: 367.6 ± 3.0 cm^3

## C[C@]12CC[C@@H]3c4ccc(O)cc4C[C@@H](CCCCCCCCC[S+]([O-])CCCC(F)(F)C(F)(F)F)[C@H]3[C@@H]1CC[C@@H]2O (some centres unmarked) [Faslodex (Fulvestrant), Fulvestrant]
Table 2, anticancer drugs
  Molar volume: 505.1 ± 3.0 cm^3

## N#Cc1ccc(C(c2ccc(C#N)cc2)n2cncn2)cc1 [Femara (Letrozole), Letrozole]
Table 2, anticancer drugs
  Molar volume: 234.5 ± 7.0 cm^3

## Cc1ccc(C(=O)N2CCN(c3ccc([N+](=O)[O-])cc3)CC2)cc1Cl [Filastatin]
[2]
  Molar volume: 269.8 ± 3.0 cm^3

## CCCCC[C@@H](O)[C@H]1C(=O)O[C@H](C)[C@@H](O)/C=C/C=C/C=C/C=C/C=C(\C)[C@@H](O)C[C@H](O)C[C@H](O)C[C@H](O)C[C@H](O)C[C@H](O)C[C@@H]1O [Filipin]
[2]
  Molar volume: 563.7 ± 3.0 cm^3

## CS(=O)(=O)c1ccc([C@@H](O)[C@@H](CF)NC(=O)C(Cl)Cl)cc1 [Florfenicol (Aquafen, Nuflor), Florfenicol]
[1]
  Molar volume: 246.7 ± 3.0 cm^3

## COC(=O)Nc1nc2cc(C(=O)c3ccc(F)cc3)ccc2[nH]1 [Flubendazol (Flumoxanal), Flubendazol]
[1]
  Molar volume: 216.8 ± 3.0 cm^3

## OC(Cn1cncn1)(Cn1cncn1)c1ccc(F)cc1F [Fluconazole]
[1]
  Molar volume: 205.2 ± 7.0 cm^3
[2]
  Molar volume: 205.2 cm^3

## CC(C(=O)O)c1ccc(-c2ccccc2)c(F)c1 (centres unmarked) [Flurbiprofen]
[1]
  Molar volume: 203.6 ± 3.0 cm^3

## C#CCC(Cc1cnc2nc(N)nc(N)c2n1)c1ccc(C(=O)N[C@@H](CCC(=O)O)C(=O)O)cc1 (some centres unmarked) [Folotyn (Pralatrexate), Pralatrexate]
Table 2, anticancer drugs
  Molar volume: 324.5 ± 3.0 cm^3

## Nc1ncnc2c([C@@H]3O[C@H](CO)[C@@H](O)[C@H]3O)[nH]nc12 [Formycin A]
[1]
  Molar volume: 128.1 ± 7.0 cm^3

## CO[C@@H]1[C@H](OC(=O)/C=C/C=C/C=C/C=C/C(=O)O)CC[C@]2(CO2)[C@H]1[C@@]1(C)O[C@@H]1CC=C(C)C [Fumagillin]
[1]
  Molar volume: 383.2 ± 5.0 cm^3

## CCCCc1ccc(C(=O)O)nc1 [Fusaric acid (5-Butylpicolinic acid), 5-Butylpicolinic acid]
[1]
  Molar volume: 161.0 ± 3.0 cm^3

## Nc1nc(=O)c2c([nH]1)NCC(CNc1ccc(C(=O)N[C@@H](CCC(=O)[O-])C(=O)[O-])cc1)N2C=O.[Ca+2] (some centres unmarked) [Fusilev (Leucovorin Calcium), Leucovorin Calcium]
Table 2, anticancer drugs
  Molar volume: 280.7 ± 7.0 cm^3

## CN[C@@H]1[C@@H](O)[C@@H](O[C@@H]2[C@@H](O)[C@H](O[C@H]3O[C@H]([C@@H](C)O)[C@@H](O)[C@H](O)[C@H]3N)[C@@H](N)C[C@H]2N)OC[C@]1(C)O [G 418]
[1]
  Molar volume: 336.3 ± 5.0 cm^3

## O=C[C@H](O)[C@@H](O)[C@@H](O)[C@H](O)CO [Galactose]
[2]
  Molar volume: 104.0 cm^3

## Nc1nc(O)c2ncn(COC(CO)CO)c2n1 [Ganciclovir]
[1]
  Molar volume: 140.5 ± 7.0 cm^3

## COc1c(N2CCNC(C)C2)c(F)cc2c(=O)c(C(=O)O)cn(C3CC3)c12 (centres unmarked) [Gatifloxacin]
[1]
  Molar volume: 270.7 ± 3.0 cm^3

## COc1cc2ncnc(Nc3ccc(F)c(Cl)c3)c2cc1OCCCN1CCOCC1 [Gefitinib]
Table 2, anticancer drugs
  Molar volume: 337.7 ± 3.0 cm^3

## Nc1ccn([C@@H]2O[C@H](CO)[C@@H](O)C2(F)F)c(=O)n1 [Gemcitabine Hydrochloride]
Table 2, anticancer drugs
  Molar volume: 142.3 ± 7.0 cm^3

## CN(C)c1ccc(C(=C2C=CC(=[N+](C)C)C=C2)c2ccc(N(C)C)cc2)cc1 [Gentian Violet]
[2]
  Molar volume: 340.9 ± 5.0 cm^3

## CN(C)C/C=C/C(=O)Nc1cc2c(Nc3ccc(F)c(Cl)c3)ncnc2cc1O[C@H]1CCOC1 [Gilotrif (Afatinib Dimaleate), Afatinib Dimaleate]
Table 2, anticancer drugs
  Molar volume: 351.9 ± 3.0 cm^3

## CN1C(=O)[C@]23CC4=CC=C[C@H](O)[C@H]4N2C(=O)[C@@]1(CO)SS3 [Gliotoxin]
[1]
  Molar volume: 186.5 ± 5.0 cm^3

## CC(C)C[C@H](NC(=O)[C@@H](COC(C)(C)C)NC(=O)[C@H](Cc1ccc(O)cc1)NC(=O)[C@H](CO)NC(=O)[C@H](Cc1c[nH]c2ccccc12)NC(=O)[C@H](Cc1cnc[nH]1)NC(=O)[C@@H]1CCC(=O)N1)C(=O)N[C@@H](CCCNC(=N)N)C(=O)N1CCC[C@H]1C(=O)NNC(N)=O [Goserelin Acetate (Zoladex), Goserelin Acetate]
Table 2, anticancer drugs
  Molar volume: 844.7 ± 7.0 cm^3

## CN1C2CCCC1CC(NC(=O)c1nn(C)c3ccccc13)C2 (centres unmarked) [Granisetron]
Table 2, anticancer drugs
  Molar volume: 234.8 ± 7.0 cm^3

## COC1=CC(=O)C[C@@H](C)[C@]12Oc1c(Cl)c(OC)cc(OC)c1C2=O [Griseofulvin]
[1]
  Molar volume: 255.1 ± 5.0 cm^3

## CC(C)NCC(O)COc1cccc2ccccc12 (centres unmarked) [Hemangeol (Propranolol Hydrochloride), Propranolol Hydrochloride]
Table 2, anticancer drugs
  Molar volume: 237.1 ± 3.0 cm^3

## CO[C@H]1[C@@H](OC)C[C@H](C)[C@@H](OC)C2=CC(=O)C=C(NC(=O)/C(C)=C/C=C\[C@H](OC)[C@@H](OC(N)=O)/C(C)=C/[C@@H]1C)C2=O [Herbimycin A]
[1]
  Molar volume: 479.9 ± 5.0 cm^3

## C=CCc1ccc(O)c(-c2ccc(O)c(CC=C)c2)c1 [Honokiol]
[1]
  Molar volume: 240.4 ± 3.0 cm^3

## CC[C@@]1(O)C(=O)OCc2c1cc1n(c2=O)Cc2cc3c(CN(C)C)c(O)ccc3nc2-1 [Hycamtin (Topotecan Hydrochloride), Topotecan Hydrochloride]
Table 2, anticancer drugs
  Molar volume: 281.3 ± 5.0 cm^3

## NC(=O)NO [Hydrea (Hydroxyurea), Hydroxyurea]
Table 2, anticancer drugs
  Molar volume: 52.1 ± 3.0 cm^3
